The source of these data is patent publication US8445523B2, “Dioxo-imidazolidine derivatives, which inhibit the enzyme SOAT-1, and pharmaceutical and cosmetic compositions containing them” (Galderma Research & Development, priority 2009, dated 2013).

The assay concerns the target T1, enzyme ACAT-1 (Homo sapiens, UniProt P35610).
T1 construct: endogenous in cells; host or cells: HepG2
T1 sequence (P35610 1-550): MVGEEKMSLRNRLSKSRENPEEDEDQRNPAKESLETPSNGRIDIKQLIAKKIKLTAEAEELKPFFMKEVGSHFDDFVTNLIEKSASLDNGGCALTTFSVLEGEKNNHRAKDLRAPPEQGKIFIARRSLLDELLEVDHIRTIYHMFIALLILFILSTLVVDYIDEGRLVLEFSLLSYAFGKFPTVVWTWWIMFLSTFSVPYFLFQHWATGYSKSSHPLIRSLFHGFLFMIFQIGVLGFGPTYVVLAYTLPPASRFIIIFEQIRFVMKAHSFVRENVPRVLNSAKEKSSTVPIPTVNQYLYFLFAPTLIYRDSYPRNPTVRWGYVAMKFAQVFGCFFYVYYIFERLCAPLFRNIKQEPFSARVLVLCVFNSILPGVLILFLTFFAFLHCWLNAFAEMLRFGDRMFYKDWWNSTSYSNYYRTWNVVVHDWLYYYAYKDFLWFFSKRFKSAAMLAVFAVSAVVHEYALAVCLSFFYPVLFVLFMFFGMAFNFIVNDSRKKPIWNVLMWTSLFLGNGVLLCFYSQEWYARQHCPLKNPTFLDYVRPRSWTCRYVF
The assay can be described thus: HepG2 NBD-cholesterol fluorescence test of inhibitory activity towards ACAT-1 (SOAT-1). It counts as cell-based. As to conditions: HepG2 cells, NBD-cholesterol 1 μg/ml, incubation 6 hours at 37° C., fluorescence read (490/540 nm). Here is the method:
The compounds (I) according to the invention, and also the pharmaceutically acceptable salts, solvates and/or hydrates thereof, have inhibitory properties on the enzyme SOAT-1. This inhibitory activity on the enzyme SOAT-1 is measured according to a HepG2 primary enzymatic test, as described in Example 11.
The compounds of formula (I) according to the invention were subjected to a test for evaluating their inhibitory activity towards the enzyme ACAT-1, inspired by the following publication: “Identification of ACAT1- and ACAT2-specific inhibitors using a novel, cell based fluorescence assay: individual ACAT uniqueness”, J. Lipid. Res. (2004) vol. 45, pages 378-386.
The principle of this test is based on the use of NBD-cholesterol, a cholesterol analogue whose fluorescence depends on its environment. When this molecule is in a polar environment, it is weakly fluorescent, whereas in a non-polar environment, it is strongly fluorescent. Free NBD-cholesterol becomes inserted in cell membranes and is weakly fluorescent in this polar environment. When NBD-cholesterol is esterified with ACAT, the NBD-cholesterol ester enters non-polar lipid droplets and is then strongly fluorescent.
The method below is applied: HepG2 cells are incubated in the presence of NBD-cholesterol (1 μg/ml) and of the test compound of formula (I) in black transparent-bottomed 96-well plates, at a rate of 30 000 cells per well. After incubation for 6 hours at 37° C. under 5% CO2, the medium is removed by turning upside-down and the cells are washed with twice 100 μl of PBS. After addition of 50 μl of lysis buffer (10 mM NaPO4, 1% Igepal), the plates are shaken for 5 minutes and the fluorescence is read (excitation at 490 nm, emission at 540 nm) on a Fusion machine (Perkin-Elmer).
For `Cc1cnc(N2C(=O)N(CC(=O)Nc3c(C(C)C)cccc3C(C)C)C(=O)C23CCCCC3)cn1` [compound (3)], the half-maximal inhibitory concentration (IC50) is 5.5 nM.

In the case of `Cc1ccc(N2C(=O)N(CC(=O)Nc3c(C(C)C)cccc3C(C)C)C(=O)C23CCOCC3)cn1` [compound (5)], the IC50 came out at 79 nM.

Molecule `COc1ccc(N2C(=O)N(CC(=O)Nc3c(C(C)C)cccc3C(C)C)C(=O)C23CCCCC3)cn1` [compound (2)] registered an IC50 of 3 nM.

For the molecule `Cc1ccc(N2C(=O)N(CC(=O)Nc3c(C(C)C)cccc3C(C)C)C(=O)C23CCCCC3)cn1` [compound (4), N-(2,6-Diisopropylphenyl)-2-[1-(6-methyl-pyridin-3-yl)-2,4-dioxo-1,3-diazaspiro[4.5]dec-3-yl]-acetamide], the half-inhibitory concentration (IC50) amounted to 0.6 nM. This IC50 is about 5-fold lower than that of the molecule before.

Molecule `CC(C)c1cccc(C(C)C)c1NC(=O)CN1C(=O)N(c2cccnc2)C2(CCCCC2)C1=O` [compound (1)] yielded an IC50 of 9 nM.

Usually IC50 stands for the concentration at which inhibition is half-maximal.
